According to US20130089504A1, “Compositions Comprising Enzyme-Cleavable Hydromorphone Prodrug” (priority 2010, published 2013):

How the values were obtained:
trypsin = molecular target: T1, trypsin (Bos taurus, UniProt P00760); experiment: In vitro trypsin conversion of prodrug Compound PC-5 to hydromorphone; assay type: biochemical; conditions: no trypsin inhibitor
T1 construct: gene PRSS1
T1 sequence (P00760 24-246): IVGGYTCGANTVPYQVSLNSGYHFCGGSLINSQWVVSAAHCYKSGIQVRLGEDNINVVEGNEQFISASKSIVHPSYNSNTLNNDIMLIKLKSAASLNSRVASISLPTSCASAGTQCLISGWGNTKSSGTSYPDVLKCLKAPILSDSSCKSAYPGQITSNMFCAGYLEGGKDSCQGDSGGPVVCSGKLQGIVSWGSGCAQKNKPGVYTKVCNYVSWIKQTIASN
Description: Compound PC-5 was exposed to trypsin as described. […] A 5-minute 37° C. pre-incubation of the reaction mixture without prodrug was conducted and then the prodrug was added to initiate the incubation. The reaction was conducted at 37° C. for 24 hr.

[1] = Pharmacokinetics of hydromorphone prodrug following IV administration to rats; assay type: in vivo; conditions: male, Sprague Dawley; rat IV, PC-5 2 mg/kg (0.29 μmol/kg); plasma; read-out: PC-5 Cmax ± sd
[2] = In vivo tolerability of Compound PC-5 in rats (IV); conditions: rat IV
Description: Male naïve Sprague-Dawley rats, 4 per dose, were used in the study. Rats were weighed, and then placed under a heat lamp for 15-20 minutes to dilate the lateral tail veins. Before dosing, rats were placed in Broome restrainers and the drug was introduced into one of the tail veins using a syringe and needle. […] Blood samples were collected 5 minutes post-dose via the saphenous vein. The rats were observed up to 24 hours.

[3] = In vitro stability of Compound PC-5 to household chemicals and enzyme preparations; assay type: physicochemical; conditions: vodka, baking soda, WINDEX, vinegar at RT or 80° C.; GNC Super Digestive, tenderizer, subtilisn at RT; 1 or 24 hr
Description: Samples were incubated as described. Aliquots were removed at 1 hr and 24 hr and stabilized by transferring each to a solution of 50% or 100% phosphoric acid to achieve a final pH of less than or equal to pH 4. The stabilized aliquots were then diluted 4- to 6-fold with water, vortex-mixed and applied to HPLC.
The percentage of Compound PC-5 remaining after exposure is indicated by the solid black bars and percentage conversion of Compound PC-5 to hydromorphone is indicated by the lightly shaded bars with a black outline.

Compound: CCN(CCNC(=O)[C@H](CCCCN)NC(=O)CC(=O)O)C(=O)Oc1ccc2c3c1O[C@H]1C(=O)CCC4[C@@H](C2)N(C)CC[C@@]341 (stereo partly drawn) [Compound PC-5, [2-((S)-2-malonylamino-6-amino-hexanoylamino)-ethyl]-ethyl-carbamic acid hydromorphone ester]
- trypsin-mediated release of hydromorphone (trypsin; in vitro): trypsin can mediate release hydromorphone
- Rate of HM formation, Average ± sd (trypsin; 0.761 mM prodrug, 0.02 to 0.0228 mg/ml trypsin, Tris pH 8, 37° C.): 106 ± 2 umols/h/umol trypsin
- half-life at 0.761 mM (trypsin; 0.761 mM prodrug, 0.02 to 0.0228 mg/ml trypsin, Tris pH 8, 37° C., read-out: Prodrug trypsin half-life, Average ± sd (converted)): 2.81 ± 0.23 h
- Cmax [1]: 3090 ± 360 ng/mL
- dose rats can tolerate [2]: 9.7 µmol/kg
- Clinical observations ([2]; 33 mg/kg ([…]), observed up to 24 hours): Normal
- conversion of Compound PC-5 to hydromorphone [3]: less than 10%
